In US12139470B2, “Trioxolane agents” (The Regents of the University of California, priority 2017, dated 2024):
In brackets after ≈: the same amount, converted by molar mass. Read-outs that look alike come from different tables or passages of the source.

Experiments:
[1] = Kinetic solubility in PBS; type: physicochemical; conditions: kinetic solubility in PBS (pH = 7.4), final DMSO 5%, average of three determinations
Plasmodium berghei [2] = test: Plasmodium berghei mouse malaria model (Peters test, cures at 30 days); type: in vivo; conditions: po, 720 h; for responders at 4 mg/kg: Table 6, 4 mg/kg
Excerpt: The suppressive 4-day “Peters test” ^27 involving P. berghei infected mice provides a convenient and cost effective means to assess the overall in vivo performance of pre-clinical antimalarials. […] Mice were followed for 30 days and judged to have been cured of the infection based on the lack of detectable parasitemia at the end of the study.
Female Swiss Webster Mice (average of 20 g body weight) were infected intraperitoneally with 10^6 Plasmodium berghei-infected erythrocytes collected from a previously infected mouse. […] There were five mice in each test arm. Infections were monitored by daily microscopic evaluation of Giemsa-stained blood smears starting on day seven. Parasitemia were determined by counting the number of infected and uninfected erythrocytes. Body weight was measured over the course of the treatment. […] Animal survival and morbidity were closely monitored for up to 30 days post-infection when the experiment was terminated. In some cases survival is expressed as a PD100 or PD50, the dose that produces respectively 100% or 50% cures in treated animals at 30 days post infection.

[3] = Mouse liver microsome assay (half-life, intrinsic clearance); conditions: for T1/2: half-life when incubated with mouse liver microsomes
Excerpt: A second hypothesis regarding trans-R^A substitution (R^A in Scheme 1) was that the resulting de-symmetrized molecular topology would impact the vivo PK/PD properties of these analogs. […] To explore possible metabolic differences, we evaluated selected analogs with mouse liver microsomes and derived intrinsic clearance (CLint) values (Table 1).

Plasmodium berghei [4] = test: Plasmodium berghei mouse malaria model (Peters test, cures at 30 days); type: in vivo; conditions: po, 720 h, oral gavage, read-out: Mice Cured (%)
[5] = system: Plasmodium falciparum: strain W2; test: Plasmodium falciparum growth inhibition assay (EC50 determinations); type: cell-based; conditions: W2 strain of P. falciparum
Description: The growth inhibition assay for P. falciparum was conducted as described previously^29 with minor modifications. […] Following 48 hours of incubation, the cells were fixed by adding 0.1 ml of 2% formaldehyde in phosphate buffered saline, pH=7.4 (PBS). […] Parasitemias were determined from dot plots (forward scatter vs. fluorescence) using [sequence] software (Becton Dickinson). EC50 values for growth inhibition were determined from plots of percentage control parasitemia over inhibitor concentration using GraphPad Prism software.

PC3 tumor = test: Biodistribution of 18F probes in PC3 tumor-bearing mice; type: in vivo, mouse
Description: FIG. 6. B9[^18F] biodistribution in PC3-bearing mice. An intravenous injection of 300 μCi was given at the tail vein of each mouse. At 30, 60 and 90 minutes post-injection, mice were sacrificed and their organs collected. […] FIG. 7. B9[^18F] biodistribution in PC3-bearing mice. An intravenous injection of 300 μCi was given at the tail vein of mice containing either a subcutaneous PC3 tumor or a renal capsule PC3 tumor. At 60 minutes post-injection, mice were sacrificed and their organs collected. […] FIG. 8. B20[^18F] biodistribution in PC3 tumor-bearing nude mice: An intravenous injection of 300 μCi was given at the tail vein of each mouse. At 60 and 90 minutes post-injection, mice were sacrificed and their organs collected. The radioactivity in the tumor appears to be stable at about 0.3% id/gram.

[6] = system: K13 revertant strain bearing the wild type K13 allele; conditions: pulsed exposure; cited from earlier work
[7] = system: clinical K13-mutant strain; conditions: pulsed exposure; cited from earlier work
[8] = clinical setting; cited from earlier work
[9] = Table 4, 4 mg/kg/day, once a day for four days, oral gavage, read-out: Mice Cured (%)
[10] = Table 4, 6 mg/kg/day, once a day for four days, oral gavage, read-out: Mice Cured (%)

| Structure (SMILES) | responders at 4 mg/kg/day (Plasmodium berghei [2]; [9]) [%] | responders at 6 mg/kg/day (Plasmodium berghei [2]; [10]) [%] | T1/2 [3] [h] | CLint ([3]; mouse, microsomes) | T1/2 (min) No NADPH ([3]; mouse, microsomes) | further results |
| --- | --- | --- | --- | --- | --- | --- |
| C[C@]12CC[C@H]3[C@@H](CCC4=CC(=O)CC[C@@]43C)[C@@H]1CC[C@@H]2O [testosterone] |  |  |  |  |  | Solubility [1]: 315 µM (≈ 90.9 µg/mL) |
| CN1CCN(C(=O)C[C@@H]2CCC[C@]3(C2)OOC2(O3)C3CC4CC(C3)CC2C4)CC1 (stereo partly drawn) [12h, 2-((R,R)-Dispiro[adamantane-2,3′-[1,2,4]trioxolane-5′,1″-cyclohexan]-3″-yl)-1-(4-methylpiperazin-1-yl)ethan-1-one] | 0 | 0 |  |  |  |  |
| NCCNC(=O)C[C@@H]1CCC[C@]2(C1)OOC1(O2)C2CC3CC(C2)CC1C3 (stereo partly drawn) [12c, N-(2-Aminoethyl)-2-((R,R)-dispiro[adamantane-2,3′-[1,2,4]trioxolane-5′,1″-cyclohexan]-3″-yl)acetamide] | 100 | 100 | 1.41 | 8.2 μL/min/mg of protein |  | responders at 0.5 mg/kg/day (Plasmodium berghei [2]; Table 5, 0.5 mg/kg/day, once a day for four days, oral gavage, read-out: Mice Cured (%)): 0%; responders at 1 mg/kg/day (Plasmodium berghei [2]; Table 5, 1 mg/kg/day, once a day for four days, oral gavage, read-out: Mice Cured (%)): 0%; responders at 2 mg/kg/day (Plasmodium berghei [2]; Table 5, 2 mg/kg/day, once a day for four days, oral gavage, read-out: Mice Cured (%)): 0%; responders at 4 mg/kg/day (Plasmodium berghei [2]; Table 5, 4 mg/kg/day, once a day for four days, oral gavage, read-out: Mice Cured (%)): 100%; responders at 4 mg/kg (Plasmodium berghei [2]; 1 dose, oral gavage, read-out: Mice Cured (%)): 0%; responders at 4 mg/kg (Plasmodium berghei [2]; 2 daily doses, oral gavage, read-out: Mice Cured (%)): 0%; responders at 4 mg/kg (Plasmodium berghei [2]; 4 daily doses, oral gavage, read-out: Mice Cured (%)): 100%; responders at 40 mg/kg (Plasmodium berghei [2]; Table 7, 40 mg/kg, 2 doses, oral gavage, read-out: Mice Cured (%)): 100%; T1/2 (min) No NADPH ([3]; mouse liver microsomes, no NADPH): 136 min; responders at 4 mg/kg (Plasmodium berghei [4]; Table 6, 4 mg/kg, 3 daily doses): 20%; responders at 40 mg/kg (Plasmodium berghei [4]; Table 7, 40 mg/kg, 1 dose): 0%; responders at 80 mg/kg (Plasmodium berghei [4]; Table 7, 80 mg/kg, 1 dose): 20% |
| N[C@H]1CC[C@H](NC(=O)C[C@@H]2CCC[C@]3(C2)OOC2(O3)C3CC4CC(C3)CC2C4)CC1 (stereo partly drawn) [12j, N-((trans)-4-Aminocyclohexyl)-2-((R,R)-dispiro[adamantane-2,3′-[1,2,4]trioxolane-5′,1″-cyclohexan]-3″-yl)acetamide] | 60 | 100 |  |  |  |  |
| O=C(C[C@@H]1CCC[C@]2(C1)OOC1(O2)C2CC3CC(C2)CC1C3)N1CCOCC1 (stereo partly drawn) [12f, 2-((R,R)-Dispiro[adamantane-2,3′-[1,2,4]trioxolane-5′,1″-cyclohexan]-3″-yl)-1-morpholinoethan-1-one] | 0 | 0 |  |  |  | potency of 12f relative to regioisomer 2f [5]: three-fold more potent than 2f |
| NC1CCN(C(=O)C[C@@H]2CCC[C@]3(C2)OOC2(O3)C3CC4CC(C3)CC2C4)CC1 (stereo partly drawn) [12i, 1-(4-Aminopiperidin-1-yl)-2-((R,R)-dispiro[adamantane-2,3′-[1,2,4]trioxolane-5′,1″-cyclohexan]-3″-yl)ethan-1-one] |  |  | 1.41 | 8.2 μL/min/mg of protein | stable |  |
| O=C(C[C@@H]1CCC[C@]2(C1)OOC1(O2)C2CC3CC(C2)CC1C3)N1CCNCC1 (stereo partly drawn) [12g, 2-((R,R)-Dispiro[adamantane-2,3′-[1,2,4]trioxolane-5′,1″-cyclohexan]-3″-yl)-1-(piperazin-1-yl)ethan-1-one] | 0 | 20 | 0.425 | 27.2 μL/min/mg of protein | stable |  |
| CC(C)(N)CNC(=O)C[C@@H]1CCC[C@]2(C1)OOC1(O2)C2CC3CC(C2)CC1C3 (stereo partly drawn) [12a, N-(2-Amino-2-methylpropyl)-2-((R,R)-dispiro[adamantane-2,3′-[1,2,4]trioxolane-5′,1″-cyclohexan]-3″-yl)acetamide] | 60 | 100 | 2.82 | 4.1 μL/min/mg of protein | stable | responders at 9.5 mg/kg/day (Plasmodium berghei [2]; Table 2, free base, 9.5 mg/kg/day, once a day for four days, oral gavage, no parasitemia at 30 days, read-out: Mice Cured (%)): 100%; responders at 13.6 mg/kg/day (Plasmodium berghei [2]; Table 2, tosylate salt, 13.6 mg/kg/day, once a day for four days, oral gavage, no parasitemia at 30 days, read-out: Mice Cured (%)): 100%; responders at 1 mg/kg/day (Plasmodium berghei [2]; Table 3, free base, 1 mg/kg/day, four daily doses, oral gavage, read-out: Mice Cured (%)): 0%; responders at 4 mg/kg/day (Plasmodium berghei [2]; Table 3, free base, 4 mg/kg/day, four daily doses, oral gavage, read-out: Mice Cured (%)): 0%; responders at 6 mg/kg/day (Plasmodium berghei [2]; Table 3, free base, 6 mg/kg/day, four daily doses, oral gavage, read-out: Mice Cured (%)): 60%; responders at 10 mg/kg/day (Plasmodium berghei [2]; Table 3, free base, 10 mg/kg/day, four daily doses, oral gavage, read-out: Mice Cured (%)): 100%; Solubility [1]: 429 µM (≈ 168 µg/mL) |
| Cc1ncc2n1-c1ccc(Cl)cc1C(c1ccccc1F)=NC2 [midazolam] |  |  | 0.0275 |  |  | CLint ([3]; mouse liver microsomes, CLint = Ln(2)*1000/T1/2/protein concentration): 420 μL/min/mg of protein |
| O=C(NCCCNC(=O)C12CC3CC(C1)[C@]1(OO[C@]4(CC[C@@H](c5ccc(OCCN6CCOCC6)cc5)CC4)O1)C(C3)C2)c1ccc(F)cc1 [B9[^18F], N-(3-(4-[^18F]fluorobenzamido)propyl)-4″-(4-(2-morpholinoethoxy)phenyl)dispiro[adamantane-2,3′-[1,2,4]trioxolane-5′,1″-cyclohexane]-5-carboxamide] |  |  |  |  |  | biodistribution, subcutaneous vs renal capsule PC3 tumor (PC3 tumor; 300 μCi i.v. tail vein, 60 minutes post-injection): no major differences noticed between the two xenograft models; radioactivity in the tumor (PC3 tumor; PC3-bearing mice, 300 μCi i.v. tail vein, 30, 60 and 90 minutes post-injection): up to 4 % id/gram |
| c1cc([C@H]2CC[C@]3(CC2)OO[C@]2(O3)C3CC4CC(C3)CC2C4)ccc1OCCN1CCOCC1 [3Z, artefenomel] |  |  |  |  |  | time to reduce early ring viability by 50% (t50) [6]: ~2 h; time to reduce early ring viability by 50% (t50) [7]: ~5 h |
| CC(C)(N)CNC(=O)C[C@H]1CC[C@]2(CC1)OO[C@]1(O2)C2CC3CC1CC(C(=O)NCCCNC(=O)c1ccc(F)cc1)(C3)C2 [B20[^18F], (1R,2r,3S,4″S,5S,5′s,7S)-4″-(2-((2-amino-2-methylpropyl)amino)-2-oxoethyl)-N-(3-(4-^18F-fluorobenzamido)propyl)dispiro[adamantane-2,3′-[1,2,4]trioxolane-5′,1′″-cyclohexane]-5-carboxamide] |  |  |  |  |  | radioactivity in the tumor (PC3 tumor; PC3 tumor-bearing nude mice, 300 μCi i.v. tail vein, 60 and 90 minutes post-injection): about 0.3 % id/gram |
| c1cc([C@H]2CC[C@]3(CC2)OO[C@]2(O3)C3CC4CC(C3)CC2C4)ccc1OCCN1CCOCC1 [3Z (artefenomel)] |  |  |  |  |  | responders at 40 mg/kg (Plasmodium berghei [2]; read-out: Mice Cured (%), Table 7, 40 mg/kg, 1 dose, oral gavage): 100%; responders at 80 mg/kg (Plasmodium berghei [2]; read-out: Mice Cured (%), Table 7, 80 mg/kg, 1 dose, oral gavage): 100% |
| C[C@H]1[C@@H](O)O[C@@H]2O[C@@]3(C)CC[C@H]4[C@H](C)CC[C@@H]1[C@@]24OO3 [DHA, dihydroartemisinin] |  |  |  |  |  | half-life [8]: ~1 h |
| CC(C)(CN)CNC(=O)C[C@@H]1CCC[C@]2(C1)OOC1(O2)C2CC3CC(C2)CC1C3 (stereo partly drawn) [12d, N-(3-Amino-2,2-dimethylpropyl)-2-((R,R)-dispiro[adamantane-2,3′-[1,2,4]trioxolane-5′,1″-cyclohexan]-3″-yl)acetamide] | 0 | 0 | 1.07 | 10.8 μL/min/mg of protein | stable |  |
| NC(=O)CNC(=O)C[C@@H]1CCC[C@]2(C1)OOC1(O2)C2CC3CC(C2)CC1C3 (stereo partly drawn) [12b, N-(2-Amino-2-oxoethyl)-2-((R,R)-dispiro[adamantane-2,3′-[1,2,4]trioxolane-5′,1″-cyclohexan]-3″-yl)acetamide] |  |  | 0.622 | 18.6 μL/min/mg of protein | stable |  |
